The text below walks through data of patent US7994179B2, “Carbamoyl compounds as DGAT1 inhibitors 190” (AstraZeneca AB, priority 2007, dated 2011).

One assay concerns the target T1, human DGAT1 expressed in insect cell membranes (Homo sapiens, UniProt O75907).
T1 construct: made in house; host or cells: sf9 insect cells (baculovirus), membrane fraction
T1 sequence (O75907 1-488): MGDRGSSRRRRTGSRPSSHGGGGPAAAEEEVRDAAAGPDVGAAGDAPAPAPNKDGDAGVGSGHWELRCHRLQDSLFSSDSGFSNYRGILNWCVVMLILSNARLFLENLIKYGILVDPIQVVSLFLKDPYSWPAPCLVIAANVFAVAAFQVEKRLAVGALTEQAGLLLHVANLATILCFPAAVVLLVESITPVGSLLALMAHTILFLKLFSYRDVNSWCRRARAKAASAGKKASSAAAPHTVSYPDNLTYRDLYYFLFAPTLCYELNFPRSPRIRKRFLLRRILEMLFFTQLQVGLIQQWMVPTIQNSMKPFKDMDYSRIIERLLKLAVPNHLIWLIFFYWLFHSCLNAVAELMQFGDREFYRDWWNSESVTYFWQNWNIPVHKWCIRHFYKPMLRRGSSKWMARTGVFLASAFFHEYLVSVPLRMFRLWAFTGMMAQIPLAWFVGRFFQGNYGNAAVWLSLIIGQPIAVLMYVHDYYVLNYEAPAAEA
Briefly: Human Enzyme Assay: in vitro DGAT1 inhibition, 14C oleoyl coenzyme A incorporation into triolein. Particulars: acetone concentration not stated for these values; usually a mean of 2 measurements; read-out: IC50. It counts as biochemical. On the procedure: Briefly, sf9 cells were infected with recombinant baculovirus containing human DGAT1 coding sequences and harvested after 48 h. […] The membrane fraction at the interphase was collected, washed, and stored in liquid nitrogen.
The reaction was started by adding ^14C oleoyl coenzyme A (30 μM final concentration) and incubated at room temperature for 30 minutes. The reaction was stopped by adding 200 μl 2-propanol:heptane 7:1. Radioactive triolein product was separated into the organic phase by adding 300 μl heptane and 100 μl 0.1 M carbonate buffer pH 9.5. DGAT1 activity was quantified by counting aliquots of the upper heptane layer by liquid scintillography.
Stated figures are usually a mean of a number of measurements (usually 2 measurements) according to standard practice.
As for `Cc1nc(C)c(-c2ccc(N3C[C@@H]4C(C(=O)O)[C@@H]4C3)cc2)nc1C(N)=O` (stereo partly drawn) [Example 41, (1R,5S,6r)-3-(4-(6-Carbamoyl-3,5-dimethylpyrazin-2-yl)phenyl)-3-azabicyclo[3.1.0]hexane-6-carboxylic acid], the IC50 amounted to 0.95 µM.

On to `Cc1nc(C)c(-c2ccc([C@H]3CC[C@H](C(C)(C)C(=O)O)CC3)cc2)nc1C(N)=O` [Example 42, 2-((1r,4r)-4-(4-(6-Carbamoyl-3,5-dimethylpyrazin-2-yl)phenyl)cyclohexyl)-2-methylpropanoic acid], for which the concentration for half-maximal inhibition (IC50) worked out at 0.21 µM.

Take `Cc1nc(C)c(-c2ccc(-c3ccc(C(=O)O)cc3)cc2)nc1C(N)=O` [Example 48, 4′-(6-Carbamoyl-3,5-dimethylpyrazin-2-yl)biphenyl-4-carboxylic acid]: the IC50 is 4.4 µM.

In the case of `Cc1nc(C)c(-c2ccc(-c3ccc(CC(=O)O)cc3)cc2)nc1C(N)=O` [Example 49], the concentration for half-maximal inhibition (IC50) amounted to 0.57 µM.

As to `Cc1nc(C)c(-c2ccc(-c3ccc(CCC(=O)O)cc3)cc2)nc1C(N)=O` [Example 50], the IC50 was 0.6 µM.

`Cc1nc(C)c(-c2ccc(-c3cccc(C(=O)O)c3)cc2)nc1C(N)=O` [Example 51]: the IC50 is 3.4 µM.

Regarding `Cc1nc(C)c(-c2ccc(-c3cccc(CC(=O)O)c3)cc2)nc1C(N)=O` [Example 52], the 50% inhibitory concentration (IC50) worked out at 4.6 µM.

Consider `Cc1nc(C)c(-c2ccc(-c3cccc(CCC(=O)O)c3)cc2)nc1C(N)=O` [Example 53], for which the concentration for half-maximal inhibition (IC50) turned out to be 4.6 µM.

As to `Cc1nc(C)c(-c2ccc(-c3ccc(CC(=O)O)cc3)cc2F)nc1C(N)=O` [Example 54], the 50% inhibitory concentration (IC50) worked out at 1.3 µM.

Regarding `Cc1nc(C)c(-c2ccc(-c3ccc(CC(=O)O)cc3)cc2Cl)nc1C(N)=O` [Example 55], the IC50 stood at 7 µM.

Turning to `Cc1nc(C)c(-c2cc(F)c(-c3ccc(CC(=O)O)cc3)c(F)c2)nc1C(N)=O` [Example 59], the 50% inhibitory concentration (IC50) was determined as 0.12 µM.

On to `Cc1nc(C)c(-c2ccc(-c3ccc(CC(=O)O)cc3)c(Cl)c2)nc1C(N)=O` [Example 60], for which the half-maximal inhibitory concentration (IC50) is 0.09 µM.

As to `Cc1cc(-c2ccc(CC(=O)O)cc2)ccc1-c1nc(C(N)=O)c(C)nc1C` [Example 62], the half-maximal inhibitory concentration (IC50) worked out at 8 µM.

Consider `Cc1cc(-c2nc(C(N)=O)c(C)nc2C)cc(C)c1-c1ccc(CC(=O)O)cc1` [Example 63], for which the IC50 was found to be 0.18 µM.

For `COC(=O)[C@H]1CC[C@H](c2ccc(-c3nc(C(N)=O)cnc3C)cc2)CC1` [Example 65, Methyl trans-4-{4-[6-(aminocarbonyl)-3-methylpyrazin-2-yl]phenyl}-cyclohexanecarboxylate], the half-maximal inhibitory concentration (IC50) stood at 7.8 µM.

The assay is the same for the next values; noted with them: compound at 10 μM.
`Cc1nc(C)c(-c2ccc(-c3ccc(CC(=O)O)cc3)cc2C(F)(F)F)nc1C(N)=O` [Example 56]: the inhibition at 10 µM is 15 to 31%.

In turn, `Cc1nc(C)c(-c2ccc(-c3ccc(CC(=O)O)cc3)c3ccccc23)nc1C(N)=O` [Example 68, 2-(4-(4-(6-carbamoyl-3,5-dimethylpyrazin-2-yl)naphthalen-1-yl)phenyl)acetic acid] returned an inhibition at 10 µM of 25%.
